From US20250041293A1, “AN IGF1R INHIBITOR AND AN AKT INHIBITOR FOR USE IN THE TREATMENT OF CANCER” (Genome Research Limited, priority 2022, published 2025)
Like-named read-outs stand apart in the source and are kept apart here.

Columns and labels:
colon cancer cell lines = assay: Anchored 2x7 combination viability screen (CellTiter-Glo, 72 h), colon cancer cell lines; assay type: cell-based; conditions: in combination with MK-2206, colon; compared with Linsitinib+MK-2206
Procedure: To screen efficiently we used a 2×7 concentration matrix, or “anchored” approach. We screened each anchor compound at two optimised concentrations and a discontinuous 1,000-fold (7-point) dose-response curve of the library compound. Viability was read out after 72 h of drug treatment using CellTiter-Glo and drug responses for single agent and combination responses were fitted. […] The combination was screened in both anchor and library orientations, the first named compound being the anchor compound.

PKA = conditions: cited from earlier work
PKC = conditions: cited from earlier work
ABL T3151 = ABL T3151 (Homo sapiens, UniProt P00519, T315I); conditions: cell-free assays; cited from earlier work
SRC = SRC (Homo sapiens, UniProt P12931); conditions: cell-free assays; cited from earlier work
LYN = LYN (Homo sapiens, UniProt P07948); conditions: cell-free assays; cited from earlier work
[1] = weekly 1-hr IV infusions; patients with solid tumours or multiple myeloma; cited from earlier work
[2] = test system: Akt1/2, Aurora A/B,B-Raf, CDK2, and EGFR; conditions: cited from earlier work
[3] = phase I, patients with multiple myeloma; cited from earlier work
Akt1 = Akt1 (Homo sapiens, UniProt P31749); conditions: cited from earlier work
Mek = conditions: cited from earlier work
MAPK1/2 = conditions: cited from earlier work
Akt2 = Akt2 (Homo sapiens, UniProt P31751); conditions: assay format not stated; cited from earlier work
Akt3 = Akt3 (Homo sapiens, UniProt Q9Y243); conditions: assay format not stated; cited from earlier work
IR = IR (Homo sapiens, UniProt P06213); conditions: cited from earlier work
FGF-R, PDGF-R, or EGF-R = conditions: for example FGF-R; cited from earlier work
IGF1R = IGF1R (Homo sapiens, UniProt P08069); conditions: assay format not stated; cited from earlier work
insulin receptor (IR) = insulin receptor (IR) (Homo sapiens, UniProt P06213); conditions: assay format not stated; cited from earlier work
Chain of insulin receptor (IR) (P06213 28-1382): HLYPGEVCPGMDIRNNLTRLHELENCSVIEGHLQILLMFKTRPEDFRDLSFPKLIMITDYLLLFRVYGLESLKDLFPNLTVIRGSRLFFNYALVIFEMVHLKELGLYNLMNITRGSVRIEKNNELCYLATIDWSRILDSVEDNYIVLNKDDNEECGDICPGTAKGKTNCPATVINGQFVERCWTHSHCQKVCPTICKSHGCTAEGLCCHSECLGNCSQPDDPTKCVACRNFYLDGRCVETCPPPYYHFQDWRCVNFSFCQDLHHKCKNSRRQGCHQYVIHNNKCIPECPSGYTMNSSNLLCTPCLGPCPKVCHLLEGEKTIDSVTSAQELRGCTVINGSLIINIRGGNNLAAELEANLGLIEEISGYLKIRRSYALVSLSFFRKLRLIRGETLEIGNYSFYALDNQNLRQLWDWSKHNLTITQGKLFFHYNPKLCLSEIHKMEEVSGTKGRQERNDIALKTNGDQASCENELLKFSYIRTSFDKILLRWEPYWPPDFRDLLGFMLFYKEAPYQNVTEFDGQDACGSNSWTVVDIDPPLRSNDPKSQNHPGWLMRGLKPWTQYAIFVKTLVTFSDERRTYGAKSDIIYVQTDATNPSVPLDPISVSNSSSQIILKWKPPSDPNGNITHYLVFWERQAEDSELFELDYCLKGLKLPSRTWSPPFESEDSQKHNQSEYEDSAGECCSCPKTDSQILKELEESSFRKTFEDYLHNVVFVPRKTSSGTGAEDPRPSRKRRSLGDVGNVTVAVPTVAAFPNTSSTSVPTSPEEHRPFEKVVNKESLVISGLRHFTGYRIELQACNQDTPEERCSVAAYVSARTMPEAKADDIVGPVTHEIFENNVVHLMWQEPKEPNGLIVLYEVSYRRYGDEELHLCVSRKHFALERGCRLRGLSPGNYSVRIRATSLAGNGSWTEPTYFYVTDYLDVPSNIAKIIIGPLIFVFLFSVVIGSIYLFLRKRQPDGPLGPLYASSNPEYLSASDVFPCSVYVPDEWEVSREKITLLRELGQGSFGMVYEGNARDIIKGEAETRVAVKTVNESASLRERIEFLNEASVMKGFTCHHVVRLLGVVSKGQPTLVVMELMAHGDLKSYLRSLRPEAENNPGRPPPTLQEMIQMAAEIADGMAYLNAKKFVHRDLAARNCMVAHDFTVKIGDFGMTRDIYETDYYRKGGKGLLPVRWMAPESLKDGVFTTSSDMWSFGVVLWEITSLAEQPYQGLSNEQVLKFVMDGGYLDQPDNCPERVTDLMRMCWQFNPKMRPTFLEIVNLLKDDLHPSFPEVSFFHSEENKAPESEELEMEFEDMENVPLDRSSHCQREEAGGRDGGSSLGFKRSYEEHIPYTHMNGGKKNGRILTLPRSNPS

Chain of Akt1 (P31749 whole entry): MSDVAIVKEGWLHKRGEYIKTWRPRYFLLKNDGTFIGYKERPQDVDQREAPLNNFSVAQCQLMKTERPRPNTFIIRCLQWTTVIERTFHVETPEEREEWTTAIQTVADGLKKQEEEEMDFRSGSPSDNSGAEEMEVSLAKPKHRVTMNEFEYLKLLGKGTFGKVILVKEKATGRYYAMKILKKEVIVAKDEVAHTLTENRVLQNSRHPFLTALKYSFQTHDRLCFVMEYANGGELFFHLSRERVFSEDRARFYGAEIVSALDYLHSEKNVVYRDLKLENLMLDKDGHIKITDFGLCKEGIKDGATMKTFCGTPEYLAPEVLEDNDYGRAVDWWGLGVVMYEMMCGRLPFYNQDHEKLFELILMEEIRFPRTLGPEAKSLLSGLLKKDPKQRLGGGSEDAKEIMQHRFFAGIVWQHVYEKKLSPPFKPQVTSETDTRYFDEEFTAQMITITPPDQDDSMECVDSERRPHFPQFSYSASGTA
Chain of SRC (P12931 whole entry): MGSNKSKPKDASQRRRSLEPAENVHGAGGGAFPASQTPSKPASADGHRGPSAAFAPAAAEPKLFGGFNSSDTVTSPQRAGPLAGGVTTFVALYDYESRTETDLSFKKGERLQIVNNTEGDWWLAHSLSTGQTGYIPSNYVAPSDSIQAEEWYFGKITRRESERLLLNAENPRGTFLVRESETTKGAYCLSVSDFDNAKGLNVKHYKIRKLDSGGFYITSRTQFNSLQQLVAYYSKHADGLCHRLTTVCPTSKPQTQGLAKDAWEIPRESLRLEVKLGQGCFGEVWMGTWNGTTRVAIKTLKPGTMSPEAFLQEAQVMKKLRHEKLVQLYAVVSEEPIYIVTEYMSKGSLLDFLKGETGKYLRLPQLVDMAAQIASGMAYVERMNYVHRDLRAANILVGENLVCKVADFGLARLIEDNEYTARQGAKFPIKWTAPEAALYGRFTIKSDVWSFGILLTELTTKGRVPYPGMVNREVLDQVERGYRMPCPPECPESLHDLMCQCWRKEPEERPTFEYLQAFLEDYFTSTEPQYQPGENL
Chain of IR (P06213 28-1382): as the sequence (P06213 28-1382) above
Chain of IGF1R (P08069 31-1367): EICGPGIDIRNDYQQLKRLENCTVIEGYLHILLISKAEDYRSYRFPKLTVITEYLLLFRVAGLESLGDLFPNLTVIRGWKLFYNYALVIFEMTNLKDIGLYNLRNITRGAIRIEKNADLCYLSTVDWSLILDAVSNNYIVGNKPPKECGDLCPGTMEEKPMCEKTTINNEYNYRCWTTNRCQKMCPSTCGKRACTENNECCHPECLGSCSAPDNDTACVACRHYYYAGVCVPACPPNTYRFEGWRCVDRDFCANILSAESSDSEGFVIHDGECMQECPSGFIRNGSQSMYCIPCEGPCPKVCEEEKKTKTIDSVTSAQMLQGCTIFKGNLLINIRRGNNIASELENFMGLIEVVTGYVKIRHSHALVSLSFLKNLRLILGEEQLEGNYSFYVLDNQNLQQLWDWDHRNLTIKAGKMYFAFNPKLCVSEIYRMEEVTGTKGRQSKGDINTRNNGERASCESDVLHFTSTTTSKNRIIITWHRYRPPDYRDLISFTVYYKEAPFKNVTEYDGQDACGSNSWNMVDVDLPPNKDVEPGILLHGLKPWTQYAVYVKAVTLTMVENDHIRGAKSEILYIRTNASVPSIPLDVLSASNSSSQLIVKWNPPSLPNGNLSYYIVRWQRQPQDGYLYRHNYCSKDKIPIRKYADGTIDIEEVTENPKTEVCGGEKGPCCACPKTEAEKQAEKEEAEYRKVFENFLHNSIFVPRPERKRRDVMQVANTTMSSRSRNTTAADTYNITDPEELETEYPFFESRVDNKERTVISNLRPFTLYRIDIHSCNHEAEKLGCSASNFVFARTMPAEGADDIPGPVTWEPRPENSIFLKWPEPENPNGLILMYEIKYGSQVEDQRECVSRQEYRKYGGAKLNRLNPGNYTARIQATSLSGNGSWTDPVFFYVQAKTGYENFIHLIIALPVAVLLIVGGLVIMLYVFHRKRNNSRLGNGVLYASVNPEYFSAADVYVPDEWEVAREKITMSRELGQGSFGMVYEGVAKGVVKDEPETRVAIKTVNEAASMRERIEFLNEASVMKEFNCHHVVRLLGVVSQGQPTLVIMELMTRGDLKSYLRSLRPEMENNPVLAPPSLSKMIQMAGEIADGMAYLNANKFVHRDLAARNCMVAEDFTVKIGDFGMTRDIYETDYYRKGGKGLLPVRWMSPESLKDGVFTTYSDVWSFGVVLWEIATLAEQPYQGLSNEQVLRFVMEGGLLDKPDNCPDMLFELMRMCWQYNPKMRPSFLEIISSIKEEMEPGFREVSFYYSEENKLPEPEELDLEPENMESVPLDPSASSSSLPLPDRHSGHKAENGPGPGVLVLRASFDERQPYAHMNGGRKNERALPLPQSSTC
Chain of Akt3 (Q9Y243 whole entry): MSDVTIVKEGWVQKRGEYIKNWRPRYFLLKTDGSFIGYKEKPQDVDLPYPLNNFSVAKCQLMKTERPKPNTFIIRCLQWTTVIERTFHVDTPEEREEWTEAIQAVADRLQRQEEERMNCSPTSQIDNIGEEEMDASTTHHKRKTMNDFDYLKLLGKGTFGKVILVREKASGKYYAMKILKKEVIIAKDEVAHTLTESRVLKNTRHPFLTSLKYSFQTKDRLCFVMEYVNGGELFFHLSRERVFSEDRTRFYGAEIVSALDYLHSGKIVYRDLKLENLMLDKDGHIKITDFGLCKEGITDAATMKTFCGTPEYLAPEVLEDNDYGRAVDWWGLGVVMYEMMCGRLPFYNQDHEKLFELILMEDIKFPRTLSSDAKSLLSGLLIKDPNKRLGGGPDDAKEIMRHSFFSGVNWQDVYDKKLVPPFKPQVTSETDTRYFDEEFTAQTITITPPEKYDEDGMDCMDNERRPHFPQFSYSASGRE
Chain of LYN (P07948 whole entry, the tested form may be a part): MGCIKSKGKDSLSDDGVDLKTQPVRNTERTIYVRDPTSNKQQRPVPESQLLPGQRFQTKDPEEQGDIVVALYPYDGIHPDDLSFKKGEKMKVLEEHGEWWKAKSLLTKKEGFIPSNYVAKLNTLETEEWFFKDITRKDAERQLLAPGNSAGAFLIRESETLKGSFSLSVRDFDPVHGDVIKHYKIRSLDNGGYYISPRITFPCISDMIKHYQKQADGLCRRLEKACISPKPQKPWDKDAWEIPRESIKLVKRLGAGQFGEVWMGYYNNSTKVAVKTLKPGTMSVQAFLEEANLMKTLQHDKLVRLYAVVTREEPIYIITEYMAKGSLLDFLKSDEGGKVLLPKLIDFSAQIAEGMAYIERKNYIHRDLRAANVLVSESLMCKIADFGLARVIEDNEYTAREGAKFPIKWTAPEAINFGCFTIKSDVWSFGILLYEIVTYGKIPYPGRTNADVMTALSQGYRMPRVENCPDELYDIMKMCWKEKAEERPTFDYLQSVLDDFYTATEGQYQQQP

Structure (SMILES): C[C@@]1(C(=O)Nc2ccc(F)nc2)CCCN1c1nc(Nc2cc(C3CC3)[nH]n2)c2cccn2n1 [BMS-754807, 1-[4-[(5-cyclopropyl-1H-pyrazol-3-yl)amino]pyrrolo[2,1-f][1,2,4]triazin-2-yl]-N-(6-fluoro-3-pyridyl)-2-methyl-pyrrolidine-2-carboxamide]
- synergy and activity of the IGF1Ri combined with MK-2206 (in words) (colon cancer cell lines): much lower
- activity to PKA (in words) (PKA): little activity
- activity to PKC (in words) (PKC): little activity

Structure (SMILES): CC(C)c1cc(CNc2nc(Nc3cc(C4CC4)[nH]n3)cc(N3CCN(C)CC3)n2)on1 [XL228, N4-(5-cyclopropyl-1H-pyrazol-3-yl)-N2-[(3-isopropylisoxazol-5-yl)methyl]-6-(4-methylpiperazin-1-yl)pyrimidine-2,4-diamine]
- IC50 (ABL T3151): 1.4 nM
- IC50 (SRC): 6.1 nM
- IC50 (LYN): 2 nM
- maximum tolerated dose (MTD) [1]: 6.5 mg/kg

Structure (SMILES): CCc1cc(Nc2nccc(-c3c(-c4ccc(OC)c(C(=O)Nc5c(F)cccc5F)c4)nc4ccccn34)n2)c(OC)cc1N1CCC(N2CCN(S(C)(=O)=O)CC2)CC1 [GSK1904529A, N-(2,6-difluorophenyl)-5-[3-[2-[5-ethyl-2-methoxy-4-[4-(4-methylsulfonylpiperazin-1-yl)-1-piperidyl]anilino]pyrimidin-4-yl]imidazo[1,2-a]pyridine-2-yl]-2-methoxy-benzamide]
- selectivity for IGF1R/IR than Akt1/2, Aurora A/B, B-Raf, CDK2, and EGFR [2]: > 100 fold

Structure (SMILES): Cn1ncc(Cl)c1-c1cc(C(=O)N[C@H](CN)Cc2cccc(F)c2)sc1Cl [Afuresertib, N-[(1S)-1-(aminomethyl)-2-(3-fluorophenyl)ethyl]-5-chloro-4-(4-chloro-2-methyl-pyrazol-3-yl)thiophene-2-carboxamide]
- maximum tolerated dose (MTD) [3]: 125 mg per day

Structure (SMILES): Cc1cc(N2CCOCC2)cc2[nH]c(-c3c(NC[C@@H](O)c4cccc(Cl)c4)cc[nH]c3=O)nc12 [BMS-536924]
- activity for Akt1 (in words) (Akt1): very little activity
- IC50 (Mek): 182 nM
- activity for MAPK1/2 (in words) (MAPK1/2): very little activity

Structure (SMILES): C[C@]1(O)C[C@@](N)(c2ccc(-c3nc4n(c3-c3ccccc3)COc3ccncc3-4)cc2)C1 [TAS-117, 3-amino-1-methyl-3-[4-(5-phenyl-8-oxa-3,6,12-triazatricyclo[7.4.0.0^2,6]trideca-1(9),2,4,10,12-pentaen-4-yl)phenyl]cyclobutan-1-ol]
- IC50 (Akt1; assay format not stated): 4.8 nM
- IC50 (Akt2): 1.6 nM
- IC50 (Akt3): 44 nM

Structure (SMILES): COc1cc([C@@H]2c3cc4c(cc3[C@H](O)[C@H]3COC(=O)[C@@H]23)OCO4)cc(OC)c1OC [AXL-1717, (5R,5aR,8aS,9R)-5-hydroxy-9-(3,4,5-trimethoxyphenyl)-5a,6,8a,9-tetrahydro-5H-[2]benzofuro[5,6-f][1,3]benzodioxol-8-one]
- inhibition of tyrosine phosphorylation of the IR (in words) (IR): does not co-inhibit
- inhibition of tyrosine phosphorylation of a selected panel of receptors less related to IGF-IR (in words) (FGF-R, PDGF-R, or EGF-R): does not co-inhibit

Structure (SMILES): Cc1ccsc1C(=O)Nc1cc(CN2CCN(C(=O)CO)CC2)ccc1/C=C/c1n[nH]c2ccccc12 [KW-2450]
- IC50 (IGF1R): 7.39 nM
- IC50 (insulin receptor (IR)): 5.64 nM
